Data: the NIST ThermoML archive (doi:10.1021/je030207i)
± gives the expanded uncertainty stated by the source.

Columns and labels:
[1] = Liquid; Ebulliometric method (Recirculating still)
[2] = excess molar enthalpy (molar enthalpy of mixing); xn = mol fraction of the nth substance listed; details: 101.3 kPa, Liquid, Flow calorimetry

OCCO [1,2-ethanediol]
Details	Normal boiling temperature [°C]
[1]	197.23 ± 0.05

OCCO [1,2-ethanediol] + CC(C)O
[2]
Details	excess molar enthalpy [kcal/mol]
298.15 K, x1 = 0.0678	0.0521 ± 0.000765
298.15 K, x1 = 0.1326	0.0876 ± 0.00112
298.15 K, x1 = 0.1951	0.112 ± 0.00136
298.15 K, x1 = 0.2555	0.128 ± 0.00151
298.15 K, x1 = 0.3138	0.138 ± 0.00163
298.15 K, x1 = 0.3702	0.143 ± 0.00167
298.15 K, x1 = 0.4248	0.145 ± 0.0017
298.15 K, x1 = 0.4776	0.144 ± 0.00167
298.15 K, x1 = 0.5287	0.14 ± 0.00165
298.15 K, x1 = 0.5782	0.134 ± 0.00158
298.15 K, x1 = 0.6262	0.127 ± 0.00151
298.15 K, x1 = 0.6727	0.118 ± 0.00141
298.15 K, x1 = 0.7178	0.107 ± 0.00131
298.15 K, x1 = 0.7617	0.0951 ± 0.0012
298.15 K, x1 = 0.8042	0.0815 ± 0.00105
298.15 K, x1 = 0.8455	0.0677 ± 0.000908
298.15 K, x1 = 0.8857	0.0523 ± 0.000765
298.15 K, x1 = 0.9248	0.036 ± 0.000598
298.15 K, x1 = 0.9628	0.0185 ± 0.00043
308.15 K, x1 = 0.0675	0.0506 ± 0.000741
308.15 K, x1 = 0.1325	0.0874 ± 0.00112
308.15 K, x1 = 0.1953	0.112 ± 0.00136
308.15 K, x1 = 0.2558	0.128 ± 0.00151
308.15 K, x1 = 0.3143	0.138 ± 0.00163
308.15 K, x1 = 0.3708	0.144 ± 0.00167
308.15 K, x1 = 0.4254	0.145 ± 0.0017
308.15 K, x1 = 0.4783	0.144 ± 0.00167
308.15 K, x1 = 0.5294	0.141 ± 0.00165
308.15 K, x1 = 0.589	0.135 ± 0.00158
308.15 K, x1 = 0.627	0.127 ± 0.00151
308.15 K, x1 = 0.6735	0.118 ± 0.00143
308.15 K, x1 = 0.7186	0.107 ± 0.00131
308.15 K, x1 = 0.7624	0.0959 ± 0.0012
308.15 K, x1 = 0.8049	0.0828 ± 0.00108
308.15 K, x1 = 0.8462	0.0682 ± 0.000932
308.15 K, x1 = 0.8863	0.0527 ± 0.000765
308.15 K, x1 = 0.9252	0.0366 ± 0.000598
308.15 K, x1 = 0.9631	0.0188 ± 0.00043
323.15 K, x1 = 0.0678	0.0469 ± 0.000717
323.15 K, x1 = 0.1326	0.0815 ± 0.00105
323.15 K, x1 = 0.1951	0.105 ± 0.00129
323.15 K, x1 = 0.2555	0.121 ± 0.00146
323.15 K, x1 = 0.3138	0.131 ± 0.00155
323.15 K, x1 = 0.3702	0.138 ± 0.00163
323.15 K, x1 = 0.4247	0.14 ± 0.00165
323.15 K, x1 = 0.4775	0.14 ± 0.00163
323.15 K, x1 = 0.5286	0.136 ± 0.0016
323.15 K, x1 = 0.5781	0.131 ± 0.00155
323.15 K, x1 = 0.6261	0.124 ± 0.00148
323.15 K, x1 = 0.6727	0.116 ± 0.00141
323.15 K, x1 = 0.7178	0.105 ± 0.00129
323.15 K, x1 = 0.7617	0.0939 ± 0.00117
323.15 K, x1 = 0.8042	0.0816 ± 0.00105
323.15 K, x1 = 0.8456	0.0673 ± 0.000908
323.15 K, x1 = 0.8858	0.0522 ± 0.000765
323.15 K, x1 = 0.9248	0.036 ± 0.000598
323.15 K, x1 = 0.9628	0.0189 ± 0.00043

OCCO [1,2-ethanediol] + CCCCO
excess molar enthalpy [kcal/mol], [2]
Details	298.15 K	308.15 K	323.15 K
x1 = 0.0798	–	–	0.0775 ± 0.001
x1 = 0.0803	0.0708 ± 0.000956	0.0745 ± 0.00098	–
x1 = 0.1548	0.115 ± 0.00139	0.122 ± 0.00146	–
x1 = 0.1552	–	–	0.124 ± 0.00148
x1 = 0.225	0.144 ± 0.00167	0.152 ± 0.00174	–
x1 = 0.2253	–	–	0.159 ± 0.00184
x1 = 0.2912	0.161 ± 0.00184	0.171 ± 0.00194	–
x1 = 0.2914	–	–	0.179 ± 0.00203
x1 = 0.3537	0.172 ± 0.00196	0.181 ± 0.00206	–
x1 = 0.354	–	–	0.191 ± 0.00215
x1 = 0.4129	0.176 ± 0.00201	0.186 ± 0.0021	–
x1 = 0.4131	–	–	0.197 ± 0.0022
x1 = 0.4691	0.177 ± 0.00201	0.187 ± 0.0021	–
x1 = 0.4692	–	–	0.199 ± 0.00222
x1 = 0.5223	–	0.185 ± 0.00208	–
x1 = 0.5224	0.175 ± 0.00198	–	0.196 ± 0.0022
x1 = 0.573	0.17 ± 0.00194	0.18 ± 0.00203	0.19 ± 0.00215
x1 = 0.6211	–	0.172 ± 0.00196	0.184 ± 0.00208
x1 = 0.6212	0.163 ± 0.00186	–	–
x1 = 0.6671	0.154 ± 0.00179	0.163 ± 0.00186	0.172 ± 0.00196
x1 = 0.7108	–	–	0.16 ± 0.00184
x1 = 0.7109	0.143 ± 0.00167	0.152 ± 0.00177	–
x1 = 0.7527	0.132 ± 0.00155	0.139 ± 0.00163	0.147 ± 0.00172
x1 = 0.7926	0.117 ± 0.00141	0.124 ± 0.00148	0.132 ± 0.00155
x1 = 0.8308	0.103 ± 0.00127	0.108 ± 0.00131	–
x1 = 0.8309	–	–	0.116 ± 0.00139
x1 = 0.8675	0.0857 ± 0.0011	0.0913 ± 0.00115	0.0944 ± 0.0012
x1 = 0.9026	0.0679 ± 0.000908	0.0715 ± 0.000956	0.0749 ± 0.00098
x1 = 0.9362	0.0466 ± 0.000693	0.0485 ± 0.000717	–
x1 = 0.9363	–	–	0.0521 ± 0.000765
x1 = 0.9686	0.0243 ± 0.000478	0.026 ± 0.000502	–
x1 = 0.9687	–	–	0.0267 ± 0.000502

OCCO [1,2-ethanediol] + CCCO
excess molar enthalpy [kcal/mol], [2]
Details	298.15 K	308.15 K	323.15 K
x1 = 0.0644	–	–	0.0566 ± 0.000813
x1 = 0.0664	0.0498 ± 0.000741	0.0535 ± 0.000765	–
x1 = 0.13	0.0849 ± 0.0011	0.0912 ± 0.00115	0.0966 ± 0.0012
x1 = 0.1915	0.109 ± 0.00134	0.117 ± 0.00141	0.125 ± 0.00151
x1 = 0.2511	0.126 ± 0.00151	0.135 ± 0.00158	0.144 ± 0.00167
x1 = 0.3089	0.137 ± 0.0016	0.147 ± 0.0017	0.156 ± 0.00179
x1 = 0.3648	0.144 ± 0.00167	0.152 ± 0.00177	0.163 ± 0.00186
x1 = 0.4191	0.147 ± 0.0017	0.155 ± 0.00179	–
x1 = 0.4192	–	–	0.167 ± 0.00191
x1 = 0.4718	0.147 ± 0.0017	0.156 ± 0.00179	0.167 ± 0.00191
x1 = 0.5229	0.144 ± 0.00167	0.153 ± 0.00177	0.163 ± 0.00186
x1 = 0.5725	0.138 ± 0.00163	0.148 ± 0.00172	0.158 ± 0.00182
x1 = 0.6207	0.132 ± 0.00155	0.141 ± 0.00165	0.15 ± 0.00174
x1 = 0.6676	0.124 ± 0.00148	0.132 ± 0.00155	0.141 ± 0.00165
x1 = 0.7131	0.114 ± 0.00139	0.121 ± 0.00146	0.129 ± 0.00153
x1 = 0.7574	0.102 ± 0.00127	0.109 ± 0.00131	0.116 ± 0.00141
x1 = 0.8005	0.0897 ± 0.00112	0.0942 ± 0.00117	0.101 ± 0.00124
x1 = 0.8425	0.0741 ± 0.00098	0.0784 ± 0.00103	0.0838 ± 0.00108
x1 = 0.8833	–	–	0.0651 ± 0.000884
x1 = 0.8834	0.0581 ± 0.000813	0.0611 ± 0.00086	–
x1 = 0.9231	–	–	0.0448 ± 0.000693
x1 = 0.9232	0.04 ± 0.000645	0.0426 ± 0.000669	–
x1 = 0.9619	0.0209 ± 0.000454	0.0218 ± 0.000454	0.0229 ± 0.000478
